Results from US10793543B2, “Selective C-KIT kinase inhibitor” (PRECEDO PHARMACEUTICALS CO., LTD, priority 2016, dated 2020).

Assays:
BaF3 cells = test: Cell proliferation, CCK-8, parental BaF3; type: cell-based; details: Mus musculus, 72 hours
Description: (§1) In the present example, the following cells were used: chronic myelogenous leukemia cells K562 (expressing P210 Bcr-Abl mutant gene), human megakaryocytic leukemia cells MEG-01 (expressing P210 Bcr-Abl mutant gene), human peripheral blood basophilic leukemia cells Ku812 (expressing Bcr-Abl mutant gene) (all above cells purchased from ATCC, USA), human gastrointestinal stromal tumor cell lines GIST-T1 cells (expressing wild-type C-KIT gene) (purchased from Cosmo Bio Co., Ltd., Japan), human gastrointestinal stromal tumor cell lines GIST-882 cells (expressing wild-type C-KIT gene) (presented by the Professor Gray Lab, Dana-Farber Cancer Institute, Harvard University, USA), mouse pro-B cells BaF3 (purchased from ATCC, USA).
(§2) The cells were incubated for 72 hours, and then the number of viable cells was quantified with a microplate reader by using CCK-8 Cell Viability Assay Kit (purchased from Bestbio Company, Shanghai, China) (CCK-8 can be reduced by dehydrogenase in living cells to a highly water-soluble yellow formazan product, and the amount of formazan produced is proportional to the number of living cells).

[1] = test system: Tel-RET-BaF3 cells (RET WT); test: Cell proliferation, CCK-8, Tel-RET-BaF3; type: cell-based; details: Mus musculus, 72 hours
Description: (§3) In addition, in the present example, further uses: mouse P210/BaF3 (stably expressing P210 Bcr-Abl mutant gene), mouse Tel-ABL-BaF3 (stably expressing wild-type ABL kinase), mouse Tel-cKit-BaF3 (stably expressing C-KITwild-type kinase), mouse Tel-cKit/V559D-BaF3 (stably expressing C-KIT V559D mutant kinase), mouse Tel-cKit/V559D/V654A-BaF3 (stably expressing C-KIT V559D/V654A mutant kinase), mouse Tel-cKit/N822K-BaF3 (stably expressing C-KIT N822K mutant kinase), mouse Tel-cKit/V654A-BaF3 (stably expressing C-KIT V654A mutant kinase), mouse Tel-cKit/L567P-BaF3 (stably expressing C-KIT L567P mutant kinase), mouse Tel-cKit/T670I-BaF3 (stably expressing C-KIT T670I mutant kinase), mouse Tel-PDGFRα-BaF3 (stably expressing PDGFRα kinase), mouse Tel-PDGFRβ-BaF3 (stably expressing PDGFRβ kinase), mouse Tel-VEGFR2-BaF3 (stably expressing VEGFR2 kinase), mouse Tel-RET-BaF3 (stably expressing RET kinase). The above cell lines were all constructed by our laboratory according to the following method: the kinase region sequences of human P210 Bcr-Abl, ABL, C-KIT, C-KIT V559D, C-KIT V559D/V654A, C-KIT N822K, C-KIT V654A, C-KIT L567P, C-KIT T670I, PDGFRα, PDGFRβ, VEGFR2, RET were amplified respectively by PCR, inserted respectively into MSCV-Puro vectors harboring N-terminal TEL fragment and/or NPM fragment and/or TPR fragment (Clontech), then the vectors were stably transfected into mouse BaF3 cells by retrovirus methods and growth factor IL-3 was removed, eventually obtaining cell lines that are transferred protein (P210 Bcr-Abl, ABL, C-KIT, C-KIT V559D, C-KIT V559D/V654A, C-KIT N822K, C-KIT V654A, C-KIT L567P, C-KIT T670I, PDGFRα, PDGFRβ, VEGFR2, RET)-dependent.
as §2

[2] = test system: Tel-cKit/V654A-BaF3 cells (KIT V654A); test: Cell proliferation, CCK-8, Tel-cKit/V654A-BaF3; type: cell-based; details: Mus musculus, 72 hours
Description: as §3, §2

[3] = test system: phosphorylation of Bcr-Abl kinase and pathway proteins in K562 cells; test: Effects on cell signaling pathways (phosphorylation), K562; type: cell-based, human; details: K562, 0.1 μM, 2 hours
[4] = test system: Tel-cKit/T670I-BaF3 cells (KIT T670I); test: Cell proliferation, CCK-8, Tel-cKit/T670I-BaF3; type: cell-based; details: Mus musculus, 72 hours
Description: as §3, §2

[5] = test system: Tel-PDGFRβ-BaF3 cells (PDGFRβ); test: Cell proliferation, CCK-8, Tel-PDGFRβ-BaF3; type: cell-based; details: Mus musculus, 72 hours
Description: as §3, §2

[6] = test system: Tel-cKit/V559D/V654A-BaF3 cells (KIT V559D/V654A); test: Cell proliferation, CCK-8, Tel-cKit/V559D/V654A-BaF3; type: cell-based; details: Mus musculus, 72 hours
Description: as §3, §2

GIST-882 cells = test: Cancer cell proliferation, CCK-8, GIST-882; type: cell-based; details: Homo sapiens, GIST882, GIST-882, KIT WT, 72 hours
Description: as §1, §2

[7] = test system: Tel-PDGFRα-BaF3 cells (PDGFRα); test: Cell proliferation, CCK-8, Tel-PDGFRα-BaF3; type: cell-based; details: Mus musculus, 72 hours
Description: as §3, §2

[8] = test system: Tel-cKit/N822K-BaF3 cells (KIT N822K); test: Cell proliferation, CCK-8, Tel-cKit/N822K-BaF3; type: cell-based; details: Mus musculus, 72 hours
Description: as §3, §2

GIST-T1 cells = test: Cancer cell proliferation, CCK-8, GIST-T1; type: cell-based; details: Homo sapiens, GISTT1, GIST-T1, KIT WT, 72 hours
Description: as §1, §2

[9] = test system: Tel-VEGFR2-BaF3 cells (VEGFR2); test: Cell proliferation, CCK-8, Tel-VEGFR2-BaF3; type: cell-based; details: Mus musculus, Tel-VEGFR2-BaF3, VEGFR2, 72 hours
Description: as §3, §2

[10] = Acute toxicity assay in mice, single oral gavage; type: in vivo; details: for Number of death (number of death/number of animals in each group): female mice, 7 days observation
Experimental: (§4) 1. 4-6 week-old Bal b/c female mice were purchased from Shanghai SLAC Experimental Animal Co., Ltd., and were raised in a SPF-level laboratory. Drinking water and padding were both subjected to aseptic processing via high-pressure disinfection, and all operations of the mice were conducted under aseptic conditions; 10 healthy mice were selected, and were balanced and randomly divided into 5 groups according to their weights.
2. Specific Information for Administration
Route of administration: oral gavage
Observation period: 7 days.
3. Observation Indicators
Weighing frequency: upon grouping, the day of administration (D0) to the seventh day after administration (D7). Based on the mouse weight on D0 (starting value of 100%), the graph of the relative body weight over time was plotted.
3.2. Clinical Symptoms Observation
Strict observation was carried out within 4 hours after administration, and then observation was carried out twice a day for a total of 7 days. Observation was carried out and abnormal symptoms or phenomena in each of animals were recorded.
The number of animals died in each of dosage groups during the observation period.
Comprehensive determination was performed based on animal mortality, clinical symptoms and body weights.

[11] = test system: Tel-cKit/L576P-BaF3 cells (KIT L576P); test: Cell proliferation, CCK-8, Tel-cKit/L576P-BaF3; type: cell-based; details: Mus musculus, 72 hours
Description: as §3, §2

[12] = test system: Tel-cKit-BaF3 cells (KIT WT); test: Cell proliferation, CCK-8, Tel-cKit-BaF3; type: cell-based; details: Mus musculus, 72 hours
Description: as §3, §2

[13] = test system: Tel-cKit/V559D-BaF3 cells (KIT V559D); test: Cell proliferation, CCK-8, Tel-cKit/V559D-BaF3; type: cell-based; details: Mus musculus, 72 hours
Description: as §3, §2

[14] = test system: cells expressing wild-type C-KIT kinase; test: Cell proliferation, C-KIT cells; type: cell-based; details: cells expressing C-KIT kinase, summary of Table 2
Description: as §1, §3, §2

[15] = test system: Tel-ABL-BaF3 cells (ABL WT); test: Cell proliferation, CCK-8, Tel-ABL-BaF3; type: cell-based; details: Mus musculus, 72 h
Description: (§5) In addition, in the present example, further uses: mouse P210/BaF3 (stably expressing P210 Bcr-Abl mutant gene), mouse Tel-ABL-BaF3 (stably expressing wild-type ABL kinase), mouse Tel-cKit-BaF3 (stably expressing C-KITwild-type kinase), mouse Tel-cKit/V559D-BaF3 (stably expressing C-KIT V559D mutant kinase), mouse Tel-cKit/V559D/V654A-BaF3 (stably expressing C-KIT V559D/V654A mutant kinase), mouse Tel-cKit/N822K-BaF3 (stably expressing C-KIT N822K mutant kinase), mouse Tel-cKit/V654A-BaF3 (stably expressing C-KIT V654A mutant kinase), mouse Tel-cKit/L567P-BaF3 (stably expressing C-KIT L567P mutant kinase), mouse Tel-cKit/T670I-BaF3 (stably expressing C-KIT T670I mutant kinase), mouse Tel-PDGFRα-BaF3 (stably expressing PDGFRα kinase), mouse Tel-PDGFRβ-BaF3 (stably expressing PDGFRβ kinase), mouse Tel-VEGFR2-BaF3 (stably expressing VEGFR2 kinase), mouse Tel-RET-BaF3 (stably expressing RET kinase). […]
as §2

[16] = test system: P210/BaF3 cells (P210 Bcr-Abl); test: Cell proliferation, CCK-8, P210/BaF3; type: cell-based; details: Mus musculus, BaF3, 72 h
Description: as §5, §2

[17] = test system: K562 cells (P210 Bcr-Abl); test: Cancer cell proliferation, CCK-8, K562; type: cell-based; details: Homo sapiens, K562, 72 h
Description: as §1, §2

[18] = test system: MEG-01 cells (P210 Bcr-Abl); test: Cancer cell proliferation, CCK-8, MEG-01; type: cell-based; details: Homo sapiens, MEG-01, 72 h
Description: as §1, §2

Ku812 cells (Bcr-Abl) = test: Cancer cell proliferation, CCK-8, Ku812; type: cell-based; details: Homo sapiens, KU812, 72 h
Description: as §1, §2

[19] = test system: gastrointestinal stromal tumor cell lines GIST-882; test: Mouse tumor model of GIST-882 cells; type: in vivo; details: GIST-882 model, 100 mg/kg oral daily, Day 21 after administration
Experimental: as §4, with “conditions;” for “conditions; 10 healthy mice were selected, and were balanced and randomly divided into 5 groups according to their weights.”
(§6) 2. About 5×10^6 gastrointestinal stromal tumor cell lines GIST-T1 or GIST-882 (purchased from ATCC) were respectively injected subcutaneously at left side back of all mice at Day 0;
(§7) 5. Mice were sacrificed on Day 36 (for GIST-882 mouse model) or Day 43 (GIST-T1 mouse model) and subcutaneous tumors were taken out and weighed for comparison;
(§8) 6. Tumor tissue specimens were prepared into protein lysate samples for further usage;
(§9) 7. Growth trend of subcutaneous tumors from Day 16 to Day 43 was derived, and tumor volume was calculated as length×width×width/2 mm^3.

[20] = test system: gastrointestinal stromal tumor cell lines GIST-T1; test: Mouse tumor model of GIST-T1 cells; type: in vivo; details: 100 mg/kg oral daily, Day 28 after administration
Experimental: as §4, with “conditions;” for “conditions; 10 healthy mice were selected, and were balanced and randomly divided into 5 groups according to their weights.”
as §6, §7, §8, §9

SMILES	GI50 [1] [nM]	GI50 [2] [nM]	GI50 [4] [nM]	GI50 [5] [nM]	GI50 [6] [nM]	GI50 (GIST-882 cells) [nM]	GI50 [7] [nM]	GI50 [8] [nM]	GI50 (GIST-T1 cells) [nM]	GI50 [9] [nM]	GI50 [11] [nM]	GI50 [12] [nM]	GI50 [13] [nM]	GI50 (BaF3 cells) [µM]	GI50 [14] [nM]	also measured
Cc1ccc(NC(=O)c2ccc(CN3CCN(C)CC3)c(C(F)(F)F)c2)cc1OC1CCN(C(=O)c2cccnc2)CC1 [Compound A]	390	2260	1010	52	2450	67	95	378	14	17	321	147	134	> 10	–	proteins in Bcr-Abl signaling pathways upstream and downstream [3]: very strong inhibitory effects; Number of death (number of death/number of animals in each group) ([10]; 250 mg/kg single oral gavage): ♀: 0/2; Number of death (number of death/number of animals in each group) ([10]; 500 mg/kg single oral gavage): ♀: 0/2; clinical symptoms ([10]; 1000 mg/kg single oral gavage): started to be quiet and lie down around 40 minutes; mice died ([10]; 1000 mg/kg single oral gavage): 1; Number of death (number of death/number of animals in each group) ([10]; 1000 mg/kg single oral gavage): ♀: 1/2; clinical symptoms ([10]; 2000 mg/kg single oral gavage): gait of mice was unstable; mice died ([10]; 2000 mg/kg single oral gavage): 2; Number of death (number of death/number of animals in each group) ([10]; 2000 mg/kg single oral gavage): ♀: 2/2
Cc1cn(-c2cc(NC(=O)c3ccc(C)c(Nc4nccc(-c5cccnc5)n4)c3)cc(C(F)(F)F)c2)cn1 [nilotinib]	2660	365	2860	32	648	17	32	166	6	5380	81	47	22	> 10	< 500	GI50 [15]: 26 nM; GI50 [16]: 12.5 nM; GI50 [17]: 3 nM; GI50 [18]: 0.4 nM; GI50 (Ku812 cells (Bcr-Abl)): 1.2 nM
Cc1ccc(NC(=O)c2ccc(CN3CCN(C)CC3)cc2)cc1Nc1nccc(-c2cccnc2)n1 [imatinib]	6310	2490	6670	–	3000	14	–	1290	8	> 10000	102	412	39	> 10	< 500	tumor inhibition rate [19]: 49%; tumor inhibition rate [20]: 72.4%

Continued by falling GI50 [1], values first:

GI50 [1] [nM]	GI50 [2] [nM]	GI50 [4] [nM]	GI50 [5] [nM]	GI50 [6] [nM]	GI50 (GIST-882 cells) [nM]	GI50 [7] [nM]	GI50 [8] [nM]	GI50 (GIST-T1 cells) [nM]	GI50 [9] [nM]	GI50 [11] [nM]	GI50 [12] [nM]	GI50 [13] [nM]	SMILES	GI50 (BaF3 cells) [µM]	GI50 [14] [nM]	also measured
490	401	952	42	–	–	36	380	30	5	–	–	36	C=CC(=O)N1CCC(Oc2cc(NC(=O)c3ccc(CN4CCN(C)CC4)c(C(F)(F)F)c3)ccc2C)CC1 [Compound C]	> 10	< 500	–
300	585	–	40	–	–	15	130	27	7	–	170	20	Cc1ccc(NC(=O)c2ccc(CN3CCN(C)CC3)c(C(F)(F)F)c2)cc1OC1CCN(C(=O)c2ccncc2)CC1 [B]	> 10	< 500	–
